Laboratory results: patent US11213522B2, “Autoimmune-induced glutamatergic receptor dysfunction methods and treatments” (SARAH HERZOG MEMORIAL HOSPITAL EZRAT NASHIM ASSOCIATION, priority 2013, dated 2022)

System: patient positive for anti-NR1 NMDAR antibodies
Test: Abnormal Involuntary Movement Scale (AIMS), D-serine clinical trial
Assay type: in vivo, human
Conditions: for AIMS: week 0 score 1
Text: Out of the seventeen patients that entered the study, the serum of one patient was strongly positive at both serum sample dilutions for the presence of both IgG and IgM classes of anti-NR1 NMDAR antibodies. The patient was a single person having a diagnosis of schizophrenia according to DSM-IV-R criteria (American Psychiatric Association, 2000 Diagnostic and Statistical Manual of Mental Disorders-(DSM-IV-TR), 4th edition. American Psychiatric Association Washington D.C. (Text Revision)). There was no history of mental disorder in the patient's family. The patient had completed post-high school studies and had worked as a secretary. After a period of continuous headaches, for which no organic basis had been found, they had abruptly developed an acute psychosis characterized by grandiose and paranoid delusions, mystical thinking, […] affect and agitation, They had been hospitalized in a psychiatric hospital and underwent treatment with antipsychotic drugs and electroconvulsive therapy with only partial response. The patient had never returned to their previous functional and except for short attempts at living in the community, has been hospitalized ever since. They have been refractory to treatment with various classes of antipsychotic drugs, was not diagnosed with any medical or neurological disorder and was maintained on sulpiride 50 mg/day, citalopram 40 mg/day, lorazepam 1 mg/day and promethazine 50 mg/day. […] DSR is a naturally occurring amino acid that acts in vivo as an obligatory co-agonist at the glycine modulatory site associated with NMDAR. […] Both acute and chronic administration of 1-2 g DSR in humans is known to result in ≥100 times increases in DSR serum levels (Kantrowitz et al., 2010, Schizophr Res121:125-30; Heresco-Levy et al., 2005, Biol Psychiatry 57:577-85). The trial consisted of two periods, starting with a 2 week lead-in/stabilization period (-2-0) following which the patient was entered in the second period of the study which consisted of a 6 week (0-6), open-label, fixed dose therapy phase. During this phase, the patient received adjuvant treatment with DSR, whose dose was increased from 1500 mg/day (week 1) to 2000 mg/day (weeks 2 and 3) to 3000 mg/day (weeks 4 and 5) and to 4000 mg/day (week 6). The doses of the ongoing medication received by the patient remained fixed throughout the study and no changes in medication were performed. The assessment procedures used in the study included clinical and neurocognitive examinations. Motor and psychiatric symptoms as well as side-effects were rated biweekly throughout the study. […] In conjunction with UKU ratings, patient's vital signs and body weight were monitored throughout the study.

`N[C@H](CO)C(=O)O` [D-serine] was tested, and the “Motor symptomatology, as measured by AIMS and SAS scores” value (following DSR administration, minimal at baseline) was “improvements were registered”, the AIMS (study week 2) was 0 and the AIMS (study week 4) was 0. For the same molecule, the AIMS (study week 6) was 0.
